PubChem BioAssay (NCI)
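Each compound was tested at five concentrations against cells in 96-well plates for 48 hours. Here, GI50 denotes the concentration required for 50% inhibition of growth. At the TGI there is no net growth.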

Key:
Assay in all cases: inhibition of tumour cell growth, NCI panel, 48 h
[1] = tested on: EKVX NSCLC
[2] = tested on: NCI-H460 lung
[3] = tested on: SK-MEL-2 melanoma
[4] = tested on: DLD-1 colon
[5] = tested on: NCI-H226 lung
[6] = tested on: CAKI-1 renal
[7] = tested on: KM20L2 colon
[8] = tested on: HOP-18 NSCLC
[9] = tested on: COLO 205 colon
[10] = tested on: RXF 393 renal
[11] = tested on: OVCAR-4 ovarian
[12] = tested on: HCT-116 colon
[13] = tested on: M14 melanoma
[14] = tested on: SR leukemia
[15] = tested on: SN12C renal
[16] = tested on: UO-31 renal
[17] = tested on: SF-295 CNS
[18] = tested on: UACC-62 melanoma
[19] = tested on: OVCAR-3 ovarian
[20] = tested on: SW-620 colon
[21] = tested on: OVCAR-5 ovarian
[22] = tested on: LXFL 529 NSCLC
[23] = tested on: SNB-19 CNS
[24] = tested on: SK-MEL-5 melanoma
[25] = tested on: HCC-2998 colon
[26] = tested on: RPMI-8226 leukemia
[27] = tested on: U251 CNS
[28] = tested on: A549 NSCLC
[29] = tested on: LOX IMVI melanoma
[30] = tested on: NCI-H23 lung
[31] = tested on: TK-10 renal
[32] = tested on: DMS 273 small cell lung
[33] = tested on: SF-539 CNS
[34] = tested on: NCI-H522 lung
[35] = tested on: SNB-75 CNS
[36] = tested on: SNB-78 CNS
[37] = tested on: MALME-3M melanoma
[38] = tested on: HCT-15 colon
[39] = tested on: OVCAR-8 ovarian
[40] = tested on: SK-MEL-28 melanoma
[41] = tested on: HOP-62 NSCLC
[42] = tested on: HOP-92 NSCLC
[43] = tested on: HT29 colon
[44] = tested on: UACC-257 melanoma
[45] = tested on: DMS 114 small cell lung
[46] = tested on: HL-60(TB) leukemia
[47] = tested on: KM12 colon
[48] = tested on: M19-MEL melanoma
[49] = tested on: XF 498 CNS
[50] = tested on: 786-0 renal
[51] = tested on: CCRF-CEM leukemia
[52] = tested on: ACHN renal
[53] = tested on: IGROV1 ovarian
[54] = tested on: A498 renal
[55] = tested on: K-562 leukemia
[56] = tested on: SF-268 CNS
[57] = tested on: MOLT-4 leukemia
[58] = tested on: SK-OV-3 ovarian

For `O=C([O-])CC(=O)[O-].O=C([O-])CC(=O)[O-].[K+].[Pd+2]`, the GI50 [1] was greater than 100 µM, the TGI [1] was greater than 100 µM and the GI50 [2] was greater than 100 µM. For the same molecule, the TGI [2] was greater than 100 µM, the GI50 [3] was greater than 100 µM and the TGI [3] was greater than 100 µM. The GI50 [4] was greater than 100 µM, the TGI [4] was greater than 100 µM and the GI50 [5] was greater than 100 µM. The TGI [5] was greater than 100 µM, the GI50 [6] was greater than 100 µM and the TGI [6] was greater than 100 µM. It also gave a GI50 [7] greater than 100 µM, a TGI [7] greater than 100 µM and a GI50 [8] greater than 100 µM. The TGI [8] was greater than 100 µM, the GI50 [9] was greater than 100 µM and the TGI [9] was greater than 100 µM. It also gave a GI50 [10] greater than 100 µM, a TGI [10] greater than 100 µM and a GI50 [11] greater than 100 µM. It also gave a TGI [11] greater than 100 µM, a GI50 [12] greater than 100 µM and a TGI [12] greater than 100 µM. For the same molecule, the GI50 [13] was greater than 100 µM, the TGI [13] was greater than 100 µM and the GI50 [14] was greater than 100 µM. The TGI [14] was greater than 100 µM, the GI50 [15] was greater than 100 µM and the TGI [15] was greater than 100 µM. The GI50 [16] was greater than 100 µM, the TGI [16] was greater than 100 µM and the GI50 [17] was greater than 100 µM. The TGI [17] was greater than 100 µM, the GI50 [18] was greater than 100 µM and the TGI [18] was greater than 100 µM. It also gave a GI50 [19] greater than 100 µM, a TGI [19] greater than 100 µM and a GI50 [20] greater than 100 µM. For the same molecule, the TGI [20] was greater than 100 µM, the GI50 [21] was greater than 100 µM and the TGI [21] was greater than 100 µM. It also gave a GI50 [22] greater than 100 µM, a TGI [22] greater than 100 µM and a GI50 [23] greater than 100 µM. It also gave a TGI [23] greater than 100 µM, a GI50 [24] greater than 100 µM and a TGI [24] greater than 100 µM. It also gave a GI50 [25] greater than 100 µM, a TGI [25] greater than 100 µM and a GI50 [26] greater than 100 µM. The TGI [26] was greater than 100 µM, the GI50 [27] was greater than 100 µM and the TGI [27] was greater than 100 µM. The GI50 [28] was greater than 100 µM, the TGI [28] was greater than 100 µM and the GI50 [29] was greater than 100 µM. The TGI [29] was greater than 100 µM, the GI50 [30] was greater than 100 µM and the TGI [30] was greater than 100 µM. The GI50 [31] was greater than 100 µM, the TGI [31] was greater than 100 µM and the GI50 [32] was greater than 100 µM. It also gave a TGI [32] greater than 100 µM, a GI50 [33] greater than 100 µM and a TGI [33] greater than 100 µM. For the same molecule, the GI50 [34] was greater than 100 µM, the TGI [34] was greater than 100 µM and the GI50 [35] was greater than 100 µM. For the same molecule, the TGI [35] was greater than 100 µM, the GI50 [36] was greater than 100 µM and the TGI [36] was greater than 100 µM. For the same molecule, the GI50 [37] was greater than 100 µM, the TGI [37] was greater than 100 µM and the GI50 [38] was greater than 100 µM. The TGI [38] was greater than 100 µM, the GI50 [39] was greater than 100 µM and the TGI [39] was greater than 100 µM. For the same molecule, the GI50 [40] was greater than 100 µM and the TGI [40] was greater than 100 µM.

`COc1ccc(C(=O)C(C(=O)CCC(=O)Nc2ccc(C)c(C)c2)c2ccc(OC)cc2)cc1` (stereo unspecified) was tested, and the TGI [2] was greater than 100 µM, the TGI [3] was greater than 100 µM and the TGI [5] was greater than 100 µM. It also gave a TGI [6] greater than 100 µM, a TGI [41] greater than 100 µM and a TGI [7] greater than 100 µM. It also gave a TGI [42] greater than 100 µM, a TGI [8] greater than 100 µM and a TGI [9] greater than 100 µM. It also gave a TGI [43] greater than 100 µM, a TGI [11] greater than 100 µM and a TGI [12] greater than 100 µM. The TGI [44] was greater than 100 µM, the TGI [13] was greater than 100 µM and the TGI [14] was greater than 100 µM. The TGI [15] was greater than 100 µM, the TGI [16] was greater than 100 µM and the TGI [17] was greater than 100 µM. The TGI [19] was greater than 100 µM, the TGI [45] was greater than 100 µM and the TGI [46] was greater than 100 µM. The TGI [20] was greater than 100 µM, the TGI [21] was greater than 100 µM and the TGI [47] was greater than 100 µM. For the same molecule, the TGI [22] was greater than 100 µM, the TGI [25] was greater than 100 µM and the TGI [48] was greater than 100 µM. The TGI [29] was greater than 100 µM, the TGI [32] was greater than 100 µM and the TGI [37] was greater than 100 µM. For the same molecule, the TGI [38] was greater than 100 µM and the TGI [39] was greater than 100 µM.

`CN(C)C(=N)c1ccccc1` was tested, and the TGI [2] was greater than 100 µM, the TGI [3] was greater than 100 µM and the TGI [5] was greater than 100 µM. The TGI [6] was greater than 100 µM, the TGI [41] was greater than 100 µM and the TGI [7] was greater than 100 µM. It also gave a TGI [42] greater than 100 µM, a TGI [9] greater than 100 µM and a TGI [43] greater than 100 µM. For the same molecule, the TGI [10] was greater than 100 µM, the TGI [11] was greater than 100 µM and the TGI [12] was greater than 100 µM. The TGI [44] was greater than 100 µM, the TGI [13] was greater than 100 µM and the TGI [14] was greater than 100 µM. The TGI [15] was greater than 100 µM, the TGI [16] was greater than 100 µM and the TGI [17] was greater than 100 µM. The TGI [19] was greater than 100 µM, the TGI [45] was greater than 100 µM and the TGI [46] was greater than 100 µM. It also gave a TGI [20] greater than 100 µM, a TGI [21] greater than 100 µM and a TGI [47] greater than 100 µM. It also gave a TGI [22] greater than 100 µM, a TGI [23] greater than 100 µM and a TGI [25] greater than 100 µM. The TGI [27] was greater than 100 µM, the TGI [48] was greater than 100 µM and the TGI [28] was greater than 100 µM. The TGI [29] was greater than 100 µM, the TGI [30] was greater than 100 µM and the TGI [31] was greater than 100 µM. The TGI [32] was greater than 100 µM, the TGI [33] was greater than 100 µM and the TGI [34] was greater than 100 µM. For the same molecule, the TGI [35] was greater than 100 µM, the TGI [36] was greater than 100 µM and the TGI [37] was greater than 100 µM. It also gave a TGI [49] greater than 100 µM, a TGI [50] greater than 100 µM and a TGI [39] greater than 100 µM. The TGI [40] was greater than 100 µM.

Molecule `CC1C=C(CCCCCCCCCCCC[C@@H](O)[C@@H]2CC[C@@H]([C@@H]3CC[C@@H](C(O)CCCCCCCCCCCCC4=C[C@H](C)OC4=O)O3)O2)C(=O)O1` (stereo partly specified) has a TGI [1] greater than 100 µM, a TGI [2] greater than 100 µM and a TGI [3] greater than 100 µM. It also gave a TGI [4] greater than 100 µM, a TGI [5] greater than 100 µM and a TGI [51] greater than 100 µM. The TGI [6] was greater than 100 µM, the TGI [41] was greater than 100 µM and the TGI [7] was greater than 100 µM. For the same molecule, the TGI [42] was greater than 100 µM, the TGI [8] was greater than 100 µM and the TGI [9] was greater than 100 µM. It also gave a TGI [43] greater than 100 µM, a TGI [10] greater than 100 µM and a TGI [52] greater than 100 µM. It also gave a TGI [12] greater than 100 µM, a TGI [44] greater than 100 µM and a TGI [13] greater than 100 µM. The TGI [14] was greater than 55 µM, the TGI [53] was greater than 100 µM and the TGI [54] was greater than 100 µM. The TGI [15] was greater than 100 µM, the TGI [16] was greater than 100 µM and the TGI [17] was greater than 100 µM. The TGI [18] was greater than 100 µM, the TGI [19] was greater than 100 µM and the TGI [45] was greater than 100 µM. The TGI [46] was greater than 100 µM, the TGI [20] was greater than 100 µM and the TGI [21] was greater than 100 µM. The TGI [47] was greater than 100 µM, the TGI [22] was greater than 100 µM and the TGI [23] was greater than 100 µM. It also gave a TGI [24] of 27.4 µM, a TGI [25] greater than 100 µM and a TGI [55] greater than 100 µM. It also gave a TGI [26] greater than 84.5 µM, a TGI [27] greater than 100 µM and a TGI [48] greater than 100 µM. The TGI [28] was greater than 100 µM, the TGI [56] was greater than 100 µM and the TGI [29] was greater than 100 µM. The TGI [30] was greater than 100 µM, the TGI [31] was greater than 100 µM and the TGI [32] was greater than 100 µM. The TGI [33] was 52.6 µM, the TGI [34] was 39.6 µM and the TGI [57] was greater than 100 µM. It also gave a TGI [35] greater than 100 µM, a TGI [37] greater than 100 µM and a TGI [49] greater than 100 µM. It also gave a TGI [58] greater than 100 µM, a TGI [50] greater than 100 µM and a TGI [38] greater than 100 µM. The TGI [39] was greater than 100 µM and the TGI [40] was greater than 100 µM.
